{"source": "patent US6242494A", "about": "“Substituted β-amino acid inhibitors of methionine aminopeptidase-2” (Abbott Laboratories, priority 1999, dated 2001)", "key": {"[1]": {"molecular_target": "T1, methionine aminopeptidase-2 (MetAP2) (Homo sapiens, UniProt P50579)", "T1 construct": "made in house; host or cells: insect cells, baculovirus system (secreted, purified from culture supernatant)", "T1 sequence (P50579 whole entry)": "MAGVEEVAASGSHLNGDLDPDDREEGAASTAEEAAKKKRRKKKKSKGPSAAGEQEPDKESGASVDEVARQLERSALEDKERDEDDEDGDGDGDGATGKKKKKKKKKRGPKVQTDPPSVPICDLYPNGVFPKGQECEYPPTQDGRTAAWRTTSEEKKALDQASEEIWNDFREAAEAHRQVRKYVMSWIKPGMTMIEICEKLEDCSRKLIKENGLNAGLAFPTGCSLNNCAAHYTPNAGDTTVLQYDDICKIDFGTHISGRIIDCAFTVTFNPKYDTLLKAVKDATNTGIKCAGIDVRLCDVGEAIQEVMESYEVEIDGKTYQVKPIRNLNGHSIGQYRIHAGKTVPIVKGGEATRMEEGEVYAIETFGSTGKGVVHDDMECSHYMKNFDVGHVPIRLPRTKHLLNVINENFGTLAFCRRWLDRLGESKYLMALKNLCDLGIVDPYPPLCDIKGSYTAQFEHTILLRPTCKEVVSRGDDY", "assay": "Inhibition of MetAP2 enzyme activity (96-well, Met-Ala-Ser substrate, L-amino acid oxidase/peroxidase/ortho-dianisidine, 450 nm)", "format": "biochemical", "conditions": "pH 7.4, Met-Ala-Ser substrate, 20 minutes"}, "angiogenesis": {"system": "angiogenesis", "conditions": "cited from earlier work; for inhibition of angiogenesis: result in words"}, "endothelial cell cycle": {"system": "endothelial cell cycle", "conditions": "late G1 phase; result in words; cited from earlier work"}, "[2]": {"system": "type 2 methionine aminopeptidase, MetAP2", "conditions": "result in words; cited from earlier work"}, "MetAP2": {"system": "MetAP2", "conditions": "result in words; cited from earlier work"}, "[3]": {"conditions": "IC50, recombinant MetAP2 4 μg/mL"}, "[4]": {"conditions": "recombinant MetAP2 4 μg/mL, read-out: IC50"}}, "note": "Structures can show the parent of a compound that is named as a salt. Where two headings read alike, the source gives them in different places."}
{"compound": "N[C@H](CC1CCCCC1)C(O)C(=O)Nc1ccccc1OC(F)(F)F", "note": "(stereo partly drawn) [Example 169, (2RS,3R)-3-amino-4-cyclohexyl-2-hydroxy-N-(2-(trifluoromethoxy)phenyl)butanamide hydrochlordie]", "values": [{"measurement": "IC50", "setting": "[1]; [3]", "value": 3300, "unit": "nM"}]}
{"compound": "CC(C)CCCC(C)NC(=O)C(O)[C@H](N)CC1CCCCC1", "note": "(stereo partly drawn) [Example 211, (2RS,3R)-3-amino-4-cyclohexyl-N-(1.5-dimethylhexyl)-2-hydroxybutanamide Hydrochloride]", "values": [{"measurement": "IC50", "setting": "[1]; [3]", "value": 2400, "unit": "nM"}]}
{"compound": "N[C@H](CC1CCCCC1)C(O)C(=O)NCc1cccc2ccccc12", "note": "(stereo partly drawn) [Example 235, (2RS,3R)-3-amino-4-cyclohexyl-2-hydroxy-N-(1-napthylmethyl)butanamide Hydrochloride]", "values": [{"measurement": "IC50", "setting": "[1]; [3]", "value": 970, "unit": "nM"}]}
{"compound": "CO[C@@H]1[C@H](OC(=O)NC(=O)CCl)CC[C@]2(CO2)[C@H]1[C@@]1(C)O[C@@H]1CC=C(C)C", "note": "[TNP-470, O-(chloroacetylcarbamoyl)fumagillol]", "values": [{"measurement": "potency as angiogenesis inhibitor relative to natural precursor fumagillin", "setting": "angiogenesis; more potent than fumagillin", "value": 50, "unit": "fold"}, {"measurement": "inhibition of angiogenesis", "setting": "angiogenesis", "value": "potent inhibitors of angiogenesis"}, {"measurement": "inhibition of neovascularization by arresting the endothelial cell cycle", "setting": "endothelial cell cycle", "value": "effective in inhibiting neovacularization by arresting the endothelial cell cycle in the late G1 phase"}, {"measurement": "binding to MetAP2", "setting": "[2]", "value": "bind to a common bifunctional protein, type 2 methionine aminopeptidase, MetAP2"}, {"measurement": "mode of MetAP2 inhibition", "setting": "MetAP2", "value": "irreversible inhibitors"}]}
{"compound": "CO[C@@H]1[C@H](OC(=O)/C=C/C=C/C=C/C=C/C(=O)O)CC[C@]2(CO2)[C@H]1[C@@]1(C)O[C@@H]1CC=C(C)C", "note": "[fumagillin]", "values": [{"measurement": "inhibition of angiogenesis", "setting": "angiogenesis", "value": "potent inhibitors of angiogenesis"}, {"measurement": "inhibition of neovascularization by arresting the endothelial cell cycle", "setting": "endothelial cell cycle", "value": "effective in inhibiting neovacularization by arresting the endothelial cell cycle in the late G1 phase"}, {"measurement": "mode of MetAP2 inhibition", "setting": "MetAP2", "value": "irreversible inhibitors"}]}
{"compound": "(2RS,3R)-3-Amino-2-hydroxy-4-cyclohexyl)butanoyl-L-alanine Cyclopropyl Ester Hydrochloride [Example 92]", "values": [{"measurement": "IC50", "setting": "[1]; [4]", "value": 1400, "unit": "nM"}]}
{"compound": "(((2RS,3R)-3-amino-4cyclohexyl-2-hydroxybutanoyl)amino)(2,5-dimethoxybenzyl)chloronium hydrochloride [Example 163]", "values": [{"measurement": "IC50", "setting": "[1]; [4]", "value": 480, "unit": "nM"}]}
